# Results: patent publication US10828316B2, “Method of treating bacterial infections” (priority 2016, dated 2020)
# Like-named read-outs stand apart in the source and are kept apart here.
# Experiments:
# E. coli strain no 2 = assay: MIC; settings: Escherichia coli
# E. coli ATCC 25922 = assay: MIC, in vitro sensitivity of the strain used in vivo; settings: Escherichia coli
# S. aureus strain no 13 = assay: MIC; settings: Staphylococcus aureus, NO13, read-out: MIC of trimethoprim only
# E. coli EN0135 = assay: MIC; assay type: cell-based; settings: in FdUrd+trimethoprim+uridine combination
# A. baumannii EN016 = assay: MIC; assay type: cell-based, Acinetobacter baumannii; settings: in FdUrd+trimethoprim+uridine combination
# K. pneumoniae EN0437 = assay: MIC; assay type: cell-based; settings: in FdUrd+trimethoprim+uridine combination
# K. pneumoniae EN0143 = assay: MIC; assay type: cell-based; settings: in FdUrd+trimethoprim+uridine combination
# Citrobacter sp. EN0465 = assay: MIC; assay type: cell-based; settings: in FdUrd+trimethoprim+uridine combination
# E. coli EN0136 = assay: MIC; assay type: cell-based; settings: in FdUrd+trimethoprim+uridine combination
# K. pneumoniae EN0249 = assay: MIC; assay type: cell-based; settings: in FdUrd+trimethoprim+uridine combination
# P. aeruginosa EN0422 = assay: MIC; assay type: cell-based, Pseudomonas aeruginosa; settings: in FdUrd+trimethoprim+uridine combination
# E. coli EN0137 = assay: MIC; assay type: cell-based; settings: in FdUrd+trimethoprim+uridine combination
# P. aeruginosa EN014 = assay: MIC; assay type: cell-based, Pseudomonas aeruginosa; settings: in FdUrd+trimethoprim+uridine combination
# P. mirabilis EN0457 = assay: MIC; assay type: cell-based, Proteus mirabilis; settings: in FdUrd+trimethoprim+uridine combination
# S. marescens EN0454 = assay: MIC; assay type: cell-based, Serratia marescens; settings: in FdUrd+trimethoprim+uridine combination
# K. pneumoniae EN0144 = assay: MIC; assay type: cell-based; settings: in FdUrd+trimethoprim+uridine combination
# K. pneumoniae EN0244 = assay: MIC; assay type: cell-based; settings: in FdUrd+trimethoprim+uridine combination
# K. pneumoniae EN0245 = assay: MIC; assay type: cell-based; settings: in FdUrd+trimethoprim+uridine combination
# P. aeruginosa EN005 = assay: MIC; assay type: cell-based, Pseudomonas aeruginosa; settings: in FdUrd+trimethoprim+uridine combination
# K. pneumoniae EN0142 = assay: MIC; assay type: cell-based; settings: in FdUrd+trimethoprim+uridine combination
# [1] = system: A. pittii or A. nosocomialis EN0180; assay: MIC; assay type: cell-based, Acinetobacter pittii or nosocomialis; settings: in FdUrd+trimethoprim+uridine combination
# E. coli EN0134 = assay: MIC; assay type: cell-based; settings: in FdUrd+trimethoprim+uridine combination
# K. pneumoniae EN0262 = assay: MIC; assay type: cell-based; settings: in FdUrd+trimethoprim+uridine combination
# K. pneumoniae EN0145 = assay: MIC; assay type: cell-based; settings: in FdUrd+trimethoprim+uridine combination
structure (smiles),measurement,setting,value
"COc1cc(Cc2cnc(N)nc2N)cc(OC)c1OC [Trimethoprim, trimethoprim]",MIC,"E. coli strain no 2; NO2, E. coli strain 2, 5 uM thymidine, uridine 0 μg/ml",5 to 10 µg/mL
same,MIC,"E. coli strain no 2; NO2, E. coli strain 2, 5 uM thymidine, uridine 10 μg/ml",2.5 to 5 µg/mL
same,MIC,"E. coli strain no 2; NO2, E. coli strain 2, 5 uM thymidine, uridine 100 μg/ml",2.5 to 5 µg/mL
same,MIC,"E. coli strain no 2; NO2, read-out: MIC of trimethoprim only, E. coli strain no 2",8 to 16 µg/mL
same,score at sampling,"E. coli; Trimethoprim 30 mg/kg, single mice",1
same,inhibition in mice infected with E. coli,E. coli; murine peritonitis model,slight inhibition
same,MIC,"E. coli ATCC 25922; ATCC25922, read-out: MIC against E. coli ATCC 25922, Plate C: TMP alone",0.5 µg/mL
same,MIC,"E. coli ATCC 25922; ATCC25922, read-out: MIC against E. coli ATCC 25922, Plate F: TMP with 2 μg/ml thymidine",1 µg/mL
same,MIC,"E. coli ATCC 25922; ATCC25922, read-out: MIC against E. coli ATCC 25922: TMP, Plate A: AZT + TMP with 50 μg/ml uridine",0.06 µg/mL
same,MIC,"E. coli ATCC 25922; ATCC25922, read-out: MIC against E. coli ATCC 25922: TMP, Plate D: AZT + TMP with 50 μg/ml uridine and 2 μg/ml thymidine",0.5 µg/mL
same,MIC,S. aureus strain no 13,< 32 µg/mL
O=c1[nH]c(=O)n([C@H]2C[C@H](O)[C@@H](CO)O2)cc1F [FdUrd],MIC,E. coli EN0135,0.25 µg/mL
same,MIC,A. baumannii EN016,4 µg/mL
same,MIC,K. pneumoniae EN0437,>4 µg/mL
same,MIC,K. pneumoniae EN0143,>4 µg/mL
same,MIC,Citrobacter sp. EN0465,>4 µg/mL
same,MIC,E. coli EN0136,1 µg/mL
same,MIC,K. pneumoniae EN0249,>4 µg/mL
same,MIC,P. aeruginosa EN0422,>4 µg/mL
same,MIC,E. coli EN0137,>4 µg/mL
same,MIC,P. aeruginosa EN014,>4 µg/mL
same,MIC,P. mirabilis EN0457,1 µg/mL
same,MIC,S. marescens EN0454,>4 µg/mL
same,MIC,K. pneumoniae EN0144,>4 µg/mL
same,MIC,K. pneumoniae EN0244,>4 µg/mL
same,MIC,K. pneumoniae EN0245,>4 µg/mL
same,MIC,P. aeruginosa EN005,0.25 µg/mL
same,MIC,K. pneumoniae EN0142,0.125 µg/mL
same,MIC,[1],4 µg/mL
same,MIC,E. coli EN0134,>4 µg/mL
same,MIC,K. pneumoniae EN0262,2 µg/mL
same,MIC,K. pneumoniae EN0145,>4 µg/mL
